Results taken from US20030170245A1, “Activation of matriptase and diagnostic and therapeutic methods based thereon” (priority 2002, published 2003).

How the values were obtained:
[1] = tested on: matriptase; assay: Induction of matriptase activation in A1N4 mammary epithelial cells (immunoblot of two-chain form with mAb M69); assay type: cell-based, human; conditions: for induction of matriptase activation (two-chain form): A1N4 cells, qualitative; for concentration at which maximal activation of matriptase was achieved: intact A1N4 cells
Protocol: FIG. 22 LPA and S1P induce the activation of matriptase.
(§1) Immunoblotting analysis: Immunobloting was conducted as previously described. Proteins were separated by 10% SDS-PAGE, transferred overnight to nitrocellulose sheets (Schleicher & Schuell, Keene, N.H.) or polyvinylidene fluoride (PVDF) and subsequently probed with mAb, as indicated. Immuno-reactive polypeptides were visualized using peroxidase-labeled anti-rat immunoglobulin and the ECL detection system (NEN, Boston, Mass.).
Induction of matriptase activation in A1N4 mammary epithelial cells: To serum starve 184 A1N4 cells, the cells were plated at 50-60% confluence, and maintained for 48-72 hrs in medium containing 0.5% serum. The activation of matriptase was then induced by incubating the cells with Iscove's Modified Dulbecco's Medium (IMEM), containing serum, as indicated in the Figure legend. Cells were then scrapped in PBS, and pelleted by centrifigation with a 5 min spin (1500×g). The cell pellets were lysed on ice for 20 min in lysis buffer (1% TritonX-100 in phosphate buffered saline). Cellular debris were removed by centrifugation for 10 min at 14,000×g. Equal protein amounts, as determined by the BCA protein micro assay (Pierce), were resolved under non-reducing, non-boiled conditions, by sodium dodecyl sulfate-polyacrylamide gel electrophoresis (SDS-PAGE), and electroblotted onto PVDF membranes (Millipore).

[2] = tested on: mRNA levels for matriptase or HAI-1; assay: mRNA levels in estrogen-depleted MCF-7 cells after hormone treatment; assay type: cell-based, human; conditions: data not shown
Protocol: Northern blotting—Total RNA was extracted from cell lines with RNAzol reagent (Tel-Test, Inc., Friendswood, Tex.) according to the manufacturer's instructions. Ten micrograms of total RNA from each cell line was resolved by electrophoresis on a 1.2% phosphate-buffered agarose gel containing 2M formaldehyde. RNA was subsequently transferred to hybond-N nylon membranes (Amersham Pharmacia Biotech, Buckinghamshire, England) and hybridized to ^32P-labeled riboprobes at 65° C. for 36 hours, followed by three washes in 0.1×SSC/0.1%SDS at 80° C. for 30 minutes each to remove unbound probe. To generate the labeled riboprobes, the coding sequences of Matriptase and HAI-1 were cloned into the pcDNA3.1 vector (Invitrogen, San Diego, Calif.), and were linearized with an appropriate restriction enzyme just 5′ of the coding sequences. These linearized vectors were used in in vitro SP6 RNA polymerase reactions with ^32P-UTP (3000 Ci/mmol, NEN, Boston, Mass.) to generate labeled antisense riboprobes. To control for approximately equal loading of RNA from each cell line, labeled riboprobes directed against the message of the ribosomal protein 36B4 were generated in a similar fashion, except that a vector containing approximately 500 bp of the coding sequence was used. […]

[3] = tested on: A1N4 human mammary epithelial cells; assay: Immunofluorescence of actin cytoskeleton rearrangement in A1N4 cells; assay type: cell-based
Protocol: FIG. 23 Immunofluorescence of actin rearrangement and activated matriptase following LPA and SIP stimulation.
Immunofluorescence: Cells were fixed with 2% paraformaldehyde for 10 min. The two-chain form matriptase was detected with mAb M69 and total matriptase was detected with mAb M32 for 1 hr at room temperature. This was followed by an 1 hr incubation with 1:200 dilution of FITC-conjugated goat anti-mouse (Jackson Immunoresearch, PA). Cells were viewed on a Zeiss microscope, and photographed with Kodak film.

[4] = target: T1, matriptase (Homo sapiens, UniProt Q9Y5Y6); assay: Proteolytic activity assay (cleavage rate of fluorescent substrate BOC-Gln-Ala-Arg-AMC); assay type: biochemical; conditions: pH 8.0, 37° C.
T1 construct: separated into two groups of polypeptides with apparent sizes of 45-kDa (A chain) and 25-kDa (B chain); from tissue; host or cells: human milk
T1 sequence (Q9Y5Y6 190-614 limits assumed): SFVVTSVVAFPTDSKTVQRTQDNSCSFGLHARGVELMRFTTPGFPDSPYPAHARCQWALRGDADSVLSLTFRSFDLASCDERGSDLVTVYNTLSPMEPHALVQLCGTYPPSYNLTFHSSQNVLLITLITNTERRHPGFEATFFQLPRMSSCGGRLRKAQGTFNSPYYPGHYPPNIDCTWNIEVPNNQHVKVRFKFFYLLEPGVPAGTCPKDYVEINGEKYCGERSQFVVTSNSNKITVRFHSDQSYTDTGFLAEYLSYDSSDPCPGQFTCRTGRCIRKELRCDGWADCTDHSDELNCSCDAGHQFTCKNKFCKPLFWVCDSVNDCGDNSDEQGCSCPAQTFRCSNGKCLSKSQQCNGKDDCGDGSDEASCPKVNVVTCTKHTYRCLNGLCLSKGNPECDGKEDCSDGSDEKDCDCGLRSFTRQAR
T1 sequence (Q9Y5Y6 615-854 limits assumed): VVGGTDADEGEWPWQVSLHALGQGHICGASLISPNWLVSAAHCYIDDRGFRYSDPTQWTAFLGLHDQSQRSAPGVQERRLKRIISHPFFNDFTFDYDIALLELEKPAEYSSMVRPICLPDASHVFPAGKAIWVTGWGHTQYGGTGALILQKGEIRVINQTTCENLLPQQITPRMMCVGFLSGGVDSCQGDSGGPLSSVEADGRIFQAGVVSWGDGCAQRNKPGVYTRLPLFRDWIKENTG
Protocol: (§2) FIG. 11 Inhibition of matriptase by HAI-1. Matriptase and HAI-1 were isolated from human milk by anti-matriptase mAb 21-9 immunoaffinity chromatography, as described previously, and were maintained in an uncomplexed status in elution buffer, 0.1 M glycine, pH 2.4.
[…] Louis), as a substrate. The rate of cleavage was determined with a fluorescence spectrophotometer (Hitachi, F-4500).

[5] = target: T1, matriptase; assay: Gelatin zymography of matriptase and matriptase/HAI-1 complex; assay type: biochemical; conditions: 1 mg/ml gelatin zymogram
Excerpt: as §2

[6] = target: T1, matriptase; assay: Binding of HAI-1 to matriptase (95-kDa complex formation, immunoblot with mAb 21-9)
Protocol: as §2, §1

## C=C1[C@@H](C)[C@H]2[C@H](Cc3ccccc3)NC(=O)[C@]23[C@H](OC(C)=O)/C=C/[C@@](C)(O)C(=O)[C@@H](C)C/C=C/[C@H]3[C@@H]1O [cytochalasin D]
[1]; pretreatment of cells before S1P
  block of S1P-induced activation of matriptase: failed to block the activation of matriptase by S1P

## CC(=O)[C@H]1CC[C@H]2[C@@H]3CCC4=CC(=O)CC[C@]4(C)[C@H]3CC[C@]12C [progesterone]
[2]; 100 nM 17β-estradiol plus 100 nM progesterone
  change in mRNA levels for matriptase or HAI-1: no change

## CCCCCCCCCCCCC/C=C/[C@@H](O)[C@@H](N)COP(=O)(O)O [S1P, shingosine 1-phosphate]
[3]
  actin cytoskeleton rearrangement (stress-fiber formation): induced actin cytoskelaton reorganization
[1]
  induction of matriptase activation (two-chain form): could mimic serum and LDL induced activation of matriptase
  concentration at which maximal activation of matriptase was achieved: 1 ng/mL
[1]; S1P versus LPA
  potency in inducing the activation of matriptase relative to LPA: 100 fold
[1]; after S1P addition
  time at which activation of matriptase started after addition: ≤ 5 min
  time to maximal activation of matriptase: ≤ 10 min
[1]; molar value in brackets
  concentration at which maximal activation of matriptase was achieved: 2.6 nM

## lysophosphatidic acid [LPA]
[3]
  actin cytoskeleton rearrangement (stress-fiber formation): induced actin cytoskelaton reorganization
[1]
  induction of matriptase activation (two-chain form): could mimic serum and LDL induced activation of matriptase
  concentration at which maximal activation of matriptase was achieved: 1000 ng/mL

## C[C@]12CC[C@@H]3c4ccc(O)cc4CC[C@H]3[C@@H]1CC[C@@H]2O [17β-estradiol]
[2]; 100 nM 17β-estradiol
  change in mRNA levels for matriptase or HAI-1: no change

## Ceramide1-P
[1]
  induction of matriptase activation (two-chain form): induced the activation of matriptase although at higher concentration than S1P

B1: HAI-1: type-1, integral membrane, Kunitz-type serine protease inhibitor, cognate inhibitor of matriptase (protein, UniProt O43278 36-529, looked up)
Kunitz-type protease …: GPPPAPPGLPAGADCLNSFTAGVPGFVLDTNASVSNGATFLESPTVRRGWDCVRACCTTQNCNLALVELQPDRGEDAIAACFLINCLYEQNFVCKFAPREGFINYLTREVYRSYRQLRTQGFGGSGIPKAWAGIDLKVQPQEPLVLKDVENTDWRLLRGDTDVRVERKDPNQVELWGLKEGTYLFQLTVTSSDHPEDTANVTVTVLSTKQTEDYCLASNKVGRCRGSFPRWYYDPTEQICKSFVYGGCLGNKNNYLREEECILACRGVQGGPLRGSSGAQATFPQGPSMERRHPVCSGTCQPTQFRCSNGCCIDSFLECDDTPNCPDASDEAACEKYTSGFDELQRIHFPSDKGHCVDLPDTGLCKESIPRWYYNPFSEHCARFTYGGCYGNKNNFEEEQQCLESCRGISKKDVFGLRREIPIPSTGSVEMAVAVFLVICIVVVVAILGYCFFKNQRKDFHGHHHHPPPTPASSTVSTTEDTEHLVYNHTTRPL
[4]
  rate of cleavage of synthetic fluorescent substrate by matriptase after HAI-1 binding: drastically decreased
[5]
  gelatinolytic activity of the 95-kDa matriptase/HAI-1 complex: only trace amounts of gelatinolytic activity
[6]; pH 8.0, 37° C.
  incubation time after which uncomplexed matriptase was undetectable by immunoblot: 30 min
[6]; pH raised to 8.0, 37° C.
  formation of 95-kDa matriptase/HAI-1 complex: rapidly occurred
